Measured values from patent US20040235900A1, “Antimicrobial oxazolifinones with improved pharmacokinetic profile and safety advantages” (priority 2002, published 2004).
Converted amounts (≈) assume the structure as drawn.

Assays:
[1] = Pharmacokinetic study, single I.V. bolus dose in beagle dog; type: in vivo; conditions: iv, single I.V. bolus dose 15 mg/kg (table title), Compound No. 4 and linezolid in 5% Tween, other compounds in cyclodextrin, serum; for concentration at 12 hr: read-out: C-12 hr; for AUC(0-t): read-out: AUC (0-24 hr)
Protocol: (§1) Blood samples were collected at time points of 0, 0.08 (not for oral), 0.25, 0.50, 1.0, 1.5, 2.0, 3.0, 4.0, 5.0, 6.0, 8.0, 10.0, 12.0 and 24.0 hours. To facilitate i.v. dosing and collection of blood samples, the dogs were implanted with cannula in cephalic vein. Serum obtained from blood samples was used for HPLC-based analysis.
(§2) Serum samples were extracted by solid phase extraction technique using Water's OASIS HLB cartridges. An HPLC-Diode array detection system was used for analysis. Prepared samples were chromatographed on a YMC-AM reversed phase column (150×4.6 mm ID; 5 μm) using an isocratic mobile phase acetate buffer (50 mmol ammonium acetate pH 6.6) acetonitrile, 66:34% v/v (for a representative compound of the invention, 68:32% v/v for compound Nos. 30, 3, 7 and 11 of U.S. Pat. No. 5,668,286, and 75:25% v/v for linezolid) at a flow rate of 1 ml/min, measured at λmax 254 nm. Independently prepared analytical standards and quality control samples were analyzed with each set of unknown samples.
The pharmacokinetics of a representative compound of the invention following single I.V. bolus dose administration of the compound in beagle dog is shown in Table 3.

[2] = system: Streptococcus pneumoniae ATCC 49619; experiment: In-vitro MIC test (agar dilution, 5% sheep blood), S. pneumoniae; type: cell-based; conditions: ATCC49619, Mueller Hinton agar containing 5% sheep blood, read-out: Minimum Inhibitory Concentrations (MIC) S. pneumoniae
Description: The test methods used for verifying the antimicrobial action of compound within the scope of this invention are essentially the same as those described in PCT WO 95/25106, U.S. Pat. No. 5,668,286 and EP 0 750, 618 B1, with the difference that the strains of the organisms used for the MIC determinations in these patents and applications are Staphylococcus aureus ATCC 25923, Staphylococcus epidermidis ATCC 12828, Streptococcus pyogenes ATCC 19615.
The in-vitro MIC methods of test compounds were determined essentially as described in PCT WO 95/25106, U.S. Pat. No. 5,668,286 and EP 0 750 618 B1.
Overnight grown cultures of S. aureus organisms in Tryptic Soya broth were diluted in Mueller Hinton Broth to give optical density matching with MacFarland tube 0.5 standard. Cultures were further diluted 1:10 in Mueller Hinton broth. Using Denley's mutipoint inoculator, 10^4 cells were deposited on Mueller Hinton agar (Difco) containing range of 2 fold dilutions of test compounds. These plates were incubated for 24 hrs at 35° C. and MIC results recorded. MIC is defined as minimum drug concentration that inhibits test organisms. For determining MIC of test compounds against Streptococcus pneumoniae, Mueller Hinton agar containing 5% sheep blood was employed.

[3] = Myelosuppressive potential: spleen and thymus relative weights, 14-day oral dosing; type: in vivo, Wistar rats
Description: Compound No.30 of U.S. Pat. […] Vehicle treated controls were maintained using identical experimental conditions. The treated as well as control rats were sacrificed 24 hr after the last dose. One parameter measured was the spleen to body weight ratio and thymus to body weight ratio in treated versus control animals. The spleen and thymus were trimmed free of fat and other contiguous organs/tissues and were weighed in an analytical balance (Sartorious BP 210). The spleen to terminal body weight ratio and the thymus to terminal body weights ratio was calculated to provide the respective relative weights. The ratio value of the respective relative weight of a treated animal versus the relative weight of a control animal is provided in Table 4. The myelosuppressive potential of a compound is inversely proportional to the ratio value. […] Values in each of the first two columns above represent ratio of relative weight (calculated organ to body weight ratio) of spleen or thymus in drug treated animals v/s control animals. […] The “[…]” column provides ratio of percentage reticulocytes in treated v/s percentage reticulocytes in control rats.

[4] = Pharmacokinetic study, single oral dose in beagle dog; type: in vivo; conditions: serum, single oral dose 5 mg/kg p.o., Compound No. 4 and linezolid in 5% Tween, other compounds in cyclodextrin; for AUC(0-t): read-out: AUC (0-24 hr); for concentration at 12 hr: read-out: C-12 hr
Protocol: as §1, with “Oral (5 mg/kg) and intravenous (5 mg/kg bolus) pharmacokinetic studies were done in dog. Blood” for “Blood”
as §2
The pharmacokinetics of a representative compound of the invention following single oral dose administration of the compound in beagle dog is shown in Table 2.

[5] = Wistar rats, oral, 14 consecutive days, 50 mg/kg per day (LNZ 2×25 mg/kg per day), ratio less than 0.75 indicates myelosuppressive potential

SMILES | Cmax [1] [ng/mL] | concentration at 12 hr [1] [ng/mL] | half-life [1] [h] | AUC(0-t) [1] [ng·h/mL] | MIC [2] [µg/mL] | myelosuppressive potential (in words) ([3]; rat, in vivo) | half-life [4] [h] | AUC(0-t) [4] [ng·h/mL] | Cmax [4] [ng/mL] | concentration at 12 hr [4] [ng/mL] | Relative Weights Ratio Spleen (spleen weight/body weight of treated animal versus control animal) [3, 5] | Relative Weights Ratio Thymus (thymus weight/body weight of treated animal versus control animal) [3, 5]
CC(=O)NC[C@H]1CN(c2ccc(N3CCC(CC#N)CC3)c(F)c2)C(=O)O1 [Compound 4, (S)-N-{3-[4-(4-cyanomethyl-piperidin-1-yl)-3-fluoro-phenyl]-2-oxo-oxazolidin-5-ylmethyl}-acetamide] | 8280 | 2640 | 12.9 | 80900 | 1 (≈ 2.67 µM) | no or lower myelosuppressive potential | 10.8 ± 2.45 | 71560 ± 250 | 5660 ± 1490 | 2840 ± 170 |  | 
CC(=O)NC[C@H]1CN(c2ccc(N3CCOCC3)c(F)c2)C(=O)O1 [Linezolid] | 7160 | 0 | 2.41 | 23300 | 0.5 (≈ 1.48 µM) |  | 2.42 ± 0.17 | 22800 ± 2170 | 5700 ± 690 | 0 | 0.46 | 0.46
